In patent publication US4725578A, “Compounds having therapeutic effect and the preparation thereof” (Tobishi Pharmaceutical Co., Ltd., priority 1986, dated 1988):

Test system: P-388 cells
Test: Antineoplastic action against implanted P-388 cells (ip-ip), survival T/C
Type: in vivo, CDFl mice
Settings: for T/C % (Treatment/Control %): Table 6, P388, intraperitoneal
Protocol: To the peritoneal cavity of each group of mice consisting of six CDFl mice per group, 10^6 /0.1 ml of P-388 cells or 10^5 /0.1 ml of L-1210 cells were implanted. […]
In the Table, the symbol T/C % means Treatment/Control %, that is the increase in life when the control is 100. […] This method is used in the screening of U.S. National Cancer Institute.
In Table 7, the symbol "i.P.-i.P." means that the tumor cells are implanted intraperitoneally and the compounds being tested are also administered intraperitoneally. The symbol "TR" is the therapeutic ratio obtained by dividing the dose which provides a maximum T/C value, by the dose which provides a minimum T/C value.

| Structure (SMILES) | T/C % (Treatment/Control %) (dose 0.05 mg/kg) | T/C % (Treatment/Control %) (dose 0.5 mg/kg) | T/C % (Treatment/Control %) (dose 2 mg/kg) | T/C % (Treatment/Control %) (dose 10 mg/kg) | T/C % (Treatment/Control %) (dose 4 mg/kg) | T/C (additional tests, P 388 (ip-ip), 0.5 mg/kg × 5, single agent) |
| --- | --- | --- | --- | --- | --- | --- |
| COc1ccc(CC2C(=O)NC(C)C(=O)N(C)C3Cc4ccc(cc4)Oc4cc(ccc4OC(=O)C(C)C)CC(C(=O)NC(C)C(=O)NC(C)C(=O)N2C)N(C)C3=O)cc1 (stereo not shown) [Ex. 25] | 124.1% | 150.7% | 155.9% | 183.5% | – | – |
| COc1ccc(CC2C(=O)NC(C)C(=O)N(C)C3Cc4ccc(cc4)Oc4cc(ccc4OC4CCCCO4)CC(C(=O)NC(C)C(=O)NC(C)C(=O)N2C)N(C)C3=O)cc1 (stereo not shown) [Ex. 20, tetrahydropyranylether of TPC-A] | 138.4% | 164.3% | 121.1% | – | – | – |
| CCCCCOc1ccc2cc1Oc1ccc(cc1)CC1C(=O)N(C)C(C2)C(=O)NC(C)C(=O)NC(C)C(=O)N(C)C(Cc2ccc(OC)cc2)C(=O)NC(C)C(=O)N1C (stereo not shown) [Ex. 7] | 122.2% | 142.7% | 165.4% | – | – | – |
| CCOC(=O)CCCOc1ccc2cc1Oc1ccc(cc1)CC1C(=O)N(C)C(C2)C(=O)NC(C)C(=O)NC(C)C(=O)N(C)C(Cc2ccc(OC)cc2)C(=O)NC(C)C(=O)N1C (stereo not shown) [Ex. 19(2), ethoxycarbonylpropylether (2) of TPC-A] | 113.8% | 139.6% | 141.7% | – | 153.1% | – |
| COc1ccc(CC2C(=O)NC(C)C(=O)N(C)C3Cc4ccc(cc4)Oc4cc(ccc4OC(=O)CCC(C)C)CC(C(=O)NC(C)C(=O)NC(C)C(=O)N2C)N(C)C3=O)cc1 (stereo not shown) [Ex. 40, 4-methyl valerate] | 111.6% | 133.9% | 152.1% | – | – | – |
| CCCCC(=O)Oc1ccc2cc1Oc1ccc(cc1)CC1C(=O)N(C)C(C2)C(=O)NC(C)C(=O)NC(C)C(=O)N(C)C(Cc2ccc(OC)cc2)C(=O)NC(C)C(=O)N1C (stereo not shown) [Ex. 27] | 117.9% | 149.5% | 157.9% | 171.6% | – | – |
| CCC(=O)Oc1ccc2cc1Oc1ccc(cc1)CC1C(=O)N(C)C(C2)C(=O)NC(C)C(=O)NC(C)C(=O)N(C)C(Cc2ccc(OC)cc2)C(=O)NC(C)C(=O)N1C (stereo not shown) [Ex. 23] | 129.0% | 145.3% | 164.4% | 175.0% | – | – |
| CCC(C)CC(=O)Oc1ccc2cc1Oc1ccc(cc1)CC1C(=O)N(C)C(C2)C(=O)NC(C)C(=O)NC(C)C(=O)N(C)C(Cc2ccc(OC)cc2)C(=O)NC(C)C(=O)N1C (stereo not shown) [Ex. 42] | 114.6% | 140.0% | 159.2% | – | – | – |
| CCC=CCC(=O)Oc1ccc2cc1Oc1ccc(cc1)CC1C(=O)N(C)C(C2)C(=O)NC(C)C(=O)NC(C)C(=O)N(C)C(Cc2ccc(OC)cc2)C(=O)NC(C)C(=O)N1C (stereo not shown) [Ex. 45] | 121.7% | 145.0% | 162.3% | – | – | – |
| CCCCCCCCCOc1ccc2cc1Oc1ccc(cc1)CC1C(=O)N(C)C(C2)C(=O)NC(C)C(=O)NC(C)C(=O)N(C)C(Cc2ccc(OC)cc2)C(=O)NC(C)C(=O)N1C (stereo not shown) [Ex. 10] | 112.5% | 141.5% | 150.1% | – | 155.4% | – |
| CCCCCCCCOc1ccc2cc1Oc1ccc(cc1)CC1C(=O)N(C)C(C2)C(=O)NC(C)C(=O)NC(C)C(=O)N(C)C(Cc2ccc(OC)cc2)C(=O)NC(C)C(=O)N1C (stereo not shown) [Ex. 9] | 136.1% | 146.8% | 162.9% | – | 152.2% | – |
| CC=CC(=O)Oc1ccc2cc1Oc1ccc(cc1)CC1C(=O)N(C)C(C2)C(=O)NC(C)C(=O)NC(C)C(=O)N(C)C(Cc2ccc(OC)cc2)C(=O)NC(C)C(=O)N1C (stereo not shown) [Ex. 26] | 124.1% | 148.5% | 162.3% | 186.6% | – | – |
| CCOc1ccc2cc1Oc1ccc(cc1)CC1C(=O)N(C)C(C2)C(=O)NC(C)C(=O)NC(C)C(=O)N(C)C(Cc2ccc(OC)cc2)C(=O)NC(C)C(=O)N1C (stereo not shown) [Ex. 3] | 137.3% | 165.4% | 162.2% | – | – | – |
| CCCC(=O)Oc1ccc2cc1Oc1ccc(cc1)CC1C(=O)N(C)C(C2)C(=O)NC(C)C(=O)NC(C)C(=O)N(C)C(Cc2ccc(OC)cc2)C(=O)NC(C)C(=O)N1C (stereo not shown) [Ex. 24] | 125.1% | 144.2% | 155.9% | 170.0% | – | – |
| COc1ccc(CC2C(=O)NC(C)C(=O)N(C)C3Cc4ccc(cc4)Oc4cc(ccc4OC(C)C)CC(C(=O)NC(C)C(=O)NC(C)C(=O)N2C)N(C)C3=O)cc1 (stereo not shown) [Ex. 5] | 142.4% | 175.1% | 105.4% | – | – | – |
| CCCC(C)C(=O)Oc1ccc2cc1Oc1ccc(cc1)CC1C(=O)N(C)C(C2)C(=O)NC(C)C(=O)NC(C)C(=O)N(C)C(Cc2ccc(OC)cc2)C(=O)NC(C)C(=O)N1C (stereo not shown) [Ex. 43] | 116.6% | 142.0% | 154.2% | – | – | – |
| CCCCCCCOc1ccc2cc1Oc1ccc(cc1)CC1C(=O)N(C)C(C2)C(=O)NC(C)C(=O)NC(C)C(=O)N(C)C(Cc2ccc(OC)cc2)C(=O)NC(C)C(=O)N1C (stereo not shown) [Ex. 8] | 115.8% | 144.7% | 150.1% | – | 164.0% | – |
| CO[C@@]12[C@H](COC(N)=O)C3=C(C(=O)C(C)=C(N)C3=O)N1C[C@@H]1N[C@@H]12 [Mitomycin, reference compound] | – | – | – | – | – | 198.2% |
| CCCC=CC(=O)Oc1ccc2cc1Oc1ccc(cc1)CC1C(=O)N(C)C(C2)C(=O)NC(C)C(=O)NC(C)C(=O)N(C)C(Cc2ccc(OC)cc2)C(=O)NC(C)C(=O)N1C (stereo not shown) [Ex. 44] | 116.6% | 150.1% | 165.3% | – | – | – |
